Measured values from PMC6265484, “Homodimerization regulates an endothelial specific signature of the SOX18 transcription factor” (Nucleic Acids Research, 2018).

Target: T1, SOX18 (GFP-SOX18 / SOX18-Cherry-myc homodimer) (Homo sapiens, UniProt P35713)
T1 construct: full-length human SOX18, synthetic gene; N-terminal GFP-tagged and C-terminal Cherry-cMyc-tagged copies co-expressed cell-free in Leishmania tarentolae extract, not purified; homodimer
T1 sequence (P35713 1-384): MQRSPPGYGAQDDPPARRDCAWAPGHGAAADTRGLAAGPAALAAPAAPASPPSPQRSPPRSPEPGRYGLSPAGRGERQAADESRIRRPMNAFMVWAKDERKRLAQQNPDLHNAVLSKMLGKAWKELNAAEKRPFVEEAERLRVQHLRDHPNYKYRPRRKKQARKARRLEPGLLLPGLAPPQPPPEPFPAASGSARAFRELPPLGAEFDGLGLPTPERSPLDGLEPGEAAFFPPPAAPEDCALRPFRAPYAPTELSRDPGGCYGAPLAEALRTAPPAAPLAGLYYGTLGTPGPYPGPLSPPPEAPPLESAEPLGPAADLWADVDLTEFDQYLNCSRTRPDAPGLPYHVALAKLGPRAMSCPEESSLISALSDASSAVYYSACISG
Assay: AlphaScreen disruption of SOX18-SOX18 homodimer in cell-free lysate
Format: biochemical
Conditions: protein-protein interaction disruption; no IR5 DNA; buffer B (25 mM HEPES, 50 mM NaCl, 0.001% NP40, 0.001% casein); 1 h; 0.7% DMSO

- IC50: ~3000 nM
Structure (SMILES): O=C(O)c1c(O)cccc1CCc1ccc2ccccc2c1 [Sm4]
